# Measured values published in PubChem BioAssay (NCI).
#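 Results reflect a 48-hour exposure of cells in 96-well plates to compound at five concentrations. The concentration for 50% growth inhibition is given as GI50. TGI: total growth inhibition.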
# Assays:
# Test in all cases: DTP human tumour cell line panel, 48 h
# [1] = tested on: SK-MEL-28 melanoma
# [2] = tested on: A498 renal
# [3] = tested on: SF-295 CNS
# [4] = tested on: IGROV1 ovarian
# [5] = tested on: OVCAR-3 ovarian
# [6] = tested on: SF-268 CNS
# [7] = tested on: HT29 colon
# [8] = tested on: LOX IMVI melanoma
# [9] = tested on: MALME-3M melanoma
# [10] = tested on: NCI-H226 lung
# [11] = tested on: NCI/ADR-RES ovarian
# [12] = tested on: NCI-H460 lung
# [13] = tested on: SW-620 colon
# [14] = tested on: MDA-MB-435
# [15] = tested on: CCRF-CEM leukemia
# [16] = tested on: RPMI-8226 leukemia
# [17] = tested on: SNB-75 CNS
# [18] = tested on: HCT-15 colon
# [19] = tested on: OVCAR-8 ovarian
# [20] = tested on: OVCAR-4 ovarian
# [21] = tested on: NCI-H23 lung
# [22] = tested on: HL-60(TB) leukemia
# [23] = tested on: BT-549 breast
# [24] = tested on: HCC-2998 colon
# [25] = tested on: SN12C renal
# [26] = tested on: KM12 colon
# [27] = tested on: SF-539 CNS
# [28] = tested on: SK-MEL-2 melanoma
# [29] = tested on: TK-10 renal
# [30] = tested on: HOP-92 NSCLC
# [31] = tested on: K-562 leukemia
# [32] = tested on: OVCAR-5 ovarian
# [33] = tested on: MOLT-4 leukemia
# [34] = tested on: NCI-H522 lung
# [35] = tested on: A549 NSCLC
# [36] = tested on: PC-3 prostate
# [37] = tested on: ACHN renal
# [38] = tested on: HCT-116 colon
# [39] = tested on: COLO 205 colon
# [40] = tested on: HS 578T breast
# [41] = tested on: UACC-62 melanoma
# [42] = tested on: MDA-MB-468 breast
# [43] = tested on: U251 CNS
# [44] = tested on: RXF 393 renal
# [45] = tested on: M14 melanoma
# [46] = tested on: SK-MEL-5 melanoma
# [47] = tested on: SNB-19 CNS
# [48] = tested on: 786-0 renal
# [49] = tested on: MCF7 breast
# [50] = tested on: T-47D breast
# [51] = tested on: HOP-62 NSCLC
# [52] = tested on: CAKI-1 renal
# [53] = tested on: EKVX NSCLC
# [54] = tested on: DU-145 prostate
# [55] = tested on: SK-OV-3 ovarian
# [56] = tested on: UACC-257 melanoma
compound,measurement,setting,value
COc1ccc2[nH]c(=O)c(CSc3nccc(-c4ccc(Cl)cc4)n3)cc2c1,GI50,[1],20.6 µM
same,TGI,[1],51.6 µM
same,GI50,[2],23.8 µM
same,TGI,[2],63 µM
same,GI50,[3],14.4 µM
same,TGI,[3],28.4 µM
same,GI50,[4],25.5 µM
same,TGI,[4],89.7 µM
same,GI50,[5],18.6 µM
same,TGI,[5],39.1 µM
same,GI50,[6],25.4 µM
same,TGI,[6],> 100 µM
same,GI50,[7],28.9 µM
same,TGI,[7],> 100 µM
same,GI50,[8],17.1 µM
same,TGI,[8],34.2 µM
same,GI50,[9],18.6 µM
same,TGI,[9],38.6 µM
same,GI50,[10],18.5 µM
same,TGI,[10],59.9 µM
same,GI50,[11],15.4 µM
same,TGI,[11],38.7 µM
same,GI50,[12],17.2 µM
same,TGI,[12],35.4 µM
same,GI50,[13],20.6 µM
same,TGI,[13],45.9 µM
same,GI50,[14],30 µM
same,TGI,[14],> 100 µM
same,GI50,[15],77.1 µM
same,TGI,[15],> 100 µM
same,GI50,[16],11.7 µM
same,TGI,[16],39.5 µM
same,GI50,[17],23.7 µM
same,TGI,[17],65.1 µM
same,GI50,[18],22 µM
same,TGI,[18],65.8 µM
same,GI50,[19],16.8 µM
same,TGI,[19],32.4 µM
same,GI50,[20],18.5 µM
same,TGI,[20],64.9 µM
same,GI50,[21],18.9 µM
same,TGI,[21],42.5 µM
same,GI50,[22],> 100 µM
same,TGI,[22],> 100 µM
same,GI50,[23],20 µM
same,TGI,[23],> 100 µM
same,GI50,[24],22.5 µM
same,TGI,[24],56.3 µM
same,GI50,[25],15.2 µM
same,TGI,[25],32.9 µM
same,GI50,[26],29.2 µM
same,TGI,[26],90.9 µM
same,GI50,[27],14.9 µM
same,TGI,[27],29.7 µM
same,GI50,[28],18.1 µM
same,TGI,[28],44 µM
same,GI50,[29],16.6 µM
same,TGI,[29],36.1 µM
same,GI50,[30],6.22 µM
same,TGI,[30],32.5 µM
same,GI50,[31],27.8 µM
same,TGI,[31],> 100 µM
same,GI50,[32],24.7 µM
same,TGI,[32],93 µM
same,GI50,[33],12 µM
same,TGI,[33],> 100 µM
same,GI50,[34],14.8 µM
same,TGI,[34],28.5 µM
same,GI50,[35],14.6 µM
same,TGI,[35],30.8 µM
same,GI50,[36],19 µM
same,TGI,[36],> 100 µM
same,GI50,[37],16.8 µM
same,TGI,[37],40.1 µM
same,GI50,[38],13 µM
same,TGI,[38],26.8 µM
same,GI50,[39],23.9 µM
same,TGI,[39],61.7 µM
same,GI50,[40],26 µM
same,TGI,[40],> 100 µM
same,GI50,[41],15.3 µM
same,TGI,[41],78.3 µM
same,GI50,[42],12.5 µM
same,TGI,[42],26.1 µM
same,GI50,[43],15.2 µM
same,TGI,[43],28.8 µM
same,GI50,[44],14.4 µM
same,TGI,[44],28.5 µM
same,GI50,[45],17.6 µM
same,TGI,[45],34.2 µM
same,GI50,[46],13.6 µM
same,TGI,[46],31.3 µM
same,GI50,[47],18 µM
same,TGI,[47],43.5 µM
same,GI50,[48],13.8 µM
same,TGI,[48],26.7 µM
same,GI50,[49],17 µM
same,TGI,[49],33.5 µM
same,GI50,[50],13.7 µM
same,TGI,[50],31 µM
same,GI50,[51],16.5 µM
same,TGI,[51],34.3 µM
same,GI50,[52],15.8 µM
same,TGI,[52],37.7 µM
same,GI50,[53],31.2 µM
same,TGI,[53],> 100 µM
same,GI50,[54],26 µM
same,TGI,[54],> 100 µM
same,GI50,[55],39.3 µM
same,TGI,[55],> 100 µM
same,GI50,[56],22.2 µM
same,TGI,[56],55.6 µM
